This note sets out measurements from article PMC2662379 (Biochemistry, 2008).

In assay [1] the target is alkaline phosphatase (AP) (Escherichia coli, UniProt P00634, R188S). Put plainly: steady-state hydrolysis kinetics. It is filed as biochemical.
The target of assay [2] is NPP (Xanthomonas axonopodis nucleotide phosphodiesterase/pyrophosphatase) (Xanthomonas citri, UniProt A0A0U5FM15). Put plainly: inhibition of MepNPP hydrolysis, absorbance of 4-nitrophenolate at […] nm. It is filed as biochemical.

Chain of alkaline phosphatase (AP) (P00634 23-471 R188S): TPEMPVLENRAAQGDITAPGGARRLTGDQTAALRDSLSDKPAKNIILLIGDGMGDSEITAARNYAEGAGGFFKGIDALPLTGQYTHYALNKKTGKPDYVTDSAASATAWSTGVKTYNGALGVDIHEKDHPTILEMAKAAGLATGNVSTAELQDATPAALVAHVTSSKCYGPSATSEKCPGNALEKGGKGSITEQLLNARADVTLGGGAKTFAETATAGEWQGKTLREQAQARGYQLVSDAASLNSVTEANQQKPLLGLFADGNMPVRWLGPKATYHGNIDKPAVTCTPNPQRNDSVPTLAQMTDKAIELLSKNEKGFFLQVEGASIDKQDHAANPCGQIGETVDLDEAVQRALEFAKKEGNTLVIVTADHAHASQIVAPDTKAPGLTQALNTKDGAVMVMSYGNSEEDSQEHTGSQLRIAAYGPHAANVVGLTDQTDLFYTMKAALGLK

`COP(O)(=S)Oc1ccc([N+](=O)[O-])cc1` (racemic) [MepNPPS, methyl p-nitrophenyl phosphorothioate]: the kcat/KM (usually the turnover number divided by the Michaelis constant) in assay [1] is 0.0011 M⁻¹ s⁻¹.
As to `Nc1ncnc2c1ncn2[C@@H]1O[C@H](COP(=O)(O)O)[C@@H](O)[C@H]1O` [AMP, adenosine monophosphate], the Ki (as a rule, the equilibrium dissociation constant of an inhibitor or competing ligand from its target) in assay [2] worked out at 318 ± 24 µM.
